From PubChem BioAssay (NCI)
Values joined by “and” are separate entries in the source; they are usually repeats but may differ in a detail not shown here. Equal entries are not always repeated.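 Growth conditions: 96-well plates. Treatment: test compound, 48 hours, 5 concentrations. Analysis: linear interpolation between bracketing concentrations; unreached endpoints set to highest concentration. GI50 is the concentration that inhibits growth by half. TGI: total growth inhibition.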

Columns and labels:
Experiment in all cases: NCI tumour cell line growth inhibition, 48 h
[1] = tested on: COLO 205 colon
[2] = tested on: DLD-1 colon
[3] = tested on: HCT-15 colon
[4] = tested on: M19-MEL melanoma
[5] = tested on: MALME-3M melanoma
[6] = tested on: SF-295 CNS
[7] = tested on: TK-10 renal
[8] = tested on: DU-145 prostate
[9] = tested on: HL-60(TB) leukemia
[10] = tested on: PC-3 prostate

`CCOC(=O)c1c(-c2[nH]c(C(=O)OCc3ccccc3)c(C)c2C(=O)OCC)[nH]c(C(=O)OCc2ccccc2)c1C` was tested, and the TGI [1] was greater than 100 µM, the TGI [2] was greater than 100 µM and the TGI [3] was greater than 100 µM. It also gave a TGI [4] greater than 100 µM, a TGI [5] greater than 100 µM and a TGI [6] greater than 100 µM. The TGI [7] was greater than 100 µM.
Work on `Cc1c(N2C(=O)/C(=C\c3ccc(O)cc3)N=C2c2ccccc2)c(=O)n(-c2ccccc2)n1C` yielded a GI50 [1] greater than 100 µM, a TGI [1] greater than 100 µM and a GI50 [8] greater than 100 µM. The TGI [8] was greater than 100 µM, the GI50 [3] was greater than 100000 nM and the TGI [3] was greater than 100 µM. It also gave a GI50 [9] greater than 100 µM, a TGI [9] greater than 100 µM and a GI50 [5] greater than 100 µM. The TGI [5] was greater than 100 µM, the GI50 [10] was greater than 100 µM and the TGI [10] was greater than 100 µM. The GI50 [6] was greater than 100000 nM, the TGI [6] was greater than 100 µM and the GI50 [7] was greater than 100 µM. It also gave a TGI [7] greater than 100 µM.
For `OCCc1cnco1`, the TGI [1] was greater than 100 µM, the TGI [2] was greater than 100 µM and the TGI [9] was greater than 100 µM. It also gave a TGI [4] greater than 100 µM, a TGI [6] greater than 100 µM and a TGI [7] greater than 100 µM.
With `COc1cc(/C=C/C(=O)c2c(C)n([O-])c3cc(C)c(C)cc3[n+]2=O)cc(OC)c1OC` the GI50 [1] was 20.7 µM, the TGI [1] was 67.4 µM and the GI50 [8] was 13.1 µM. For the same molecule, the TGI [8] was 30.8 µM, the GI50 [3] was 10300 nM and the TGI [3] was 25.6 µM. For the same molecule, the GI50 [9] was 12.1 µM, the TGI [9] was 61.7 µM and the GI50 [5] was 19.6 µM. It also gave a TGI [5] of 41.1 µM, a GI50 [10] of 14.2 µM and a TGI [10] of 38.5 µM. It also gave a GI50 [6] of 13200 nM, a TGI [6] of 34.8 µM and a GI50 [7] of 14.8 µM. For the same molecule, the TGI [7] was 31.2 µM.
`Cc1cn(C2C=CC(=O)C(C)O2)c(=O)[nH]c1=O` (configuration not stated) was tested, and the TGI [1] was 32 µM, the TGI [2] was 29.7 µM and the TGI [9] was 38.1 µM. It also gave a TGI [4] of 30.1 µM, a TGI [5] of 25.9 µM and a TGI [6] of 31.3 µM. It also gave a TGI [7] of 28.5 µM.
Work on `COc1cc2c(c3oc(-c4ccc5c(c4)OCO5)c(O)c(=O)c13)CCC(C)(C)O2` yielded a TGI [1] greater than 100 µM, a TGI [2] greater than 100 µM and a TGI [3] greater than 100 µM. It also gave a TGI [9] greater than 100 µM, a TGI [4] greater than 100 µM and a TGI [6] greater than 100 µM. For the same molecule, the TGI [7] was greater than 100 µM.
For `COc1cc2ccc(CC#N)cc2cc1OC`, the TGI [2] was greater than 100 µM, the TGI [9] was greater than 100 µM and the TGI [4] was greater than 100 µM. It also gave a TGI [5] greater than 100 µM, a TGI [6] greater than 100 µM and a TGI [7] greater than 100 µM.
In the case of `COc1cc(NCC(C#N)C#N)ccc1N=Nc1ccc([N+](=O)[O-])cc1`, the TGI [1] is reported as greater than 100 µM, the TGI [2] is reported as greater than 100 µM and the TGI [3] is reported as greater than 100 µM. It also gave a TGI [4] greater than 100 µM, a TGI [5] greater than 100 µM and a TGI [6] greater than 100 µM. For the same molecule, the TGI [7] was greater than 100 µM.
`Cc1cc(-c2ccccc2)c(C)n1Cc1ccc(Cl)cc1` showed a GI50 [1] of 5.96 µM, a TGI [1] of 27.8 µM and a GI50 [8] of 6.87 µM. For the same molecule, the TGI [8] was greater than 100 µM, the GI50 [3] was 2860 nM and the TGI [3] was greater than 100 µM. The GI50 [9] was 4.3 µM, the TGI [9] was 55.8 µM and the GI50 [5] was 3.85 µM. It also gave a TGI [5] of 39.1 µM, a GI50 [10] of 5.18 µM and a TGI [10] greater than 100 µM. The GI50 [6] was 2740 nM, the TGI [6] was 9.33 µM and the GI50 [7] was 9.66 µM. The TGI [7] was 65.4 µM.
`COc1cc(Nc2ncc3c(n2)-c2ccc(Cl)cc2C(c2c(F)cccc2OC)=NC3)ccc1C(=O)O` was tested, and the GI50 [1] was 0.0651 µM, the TGI [1] was 16.7 µM and the GI50 [8] was 17.6 µM. For the same molecule, the TGI [8] was greater than 87.5 µM, the GI50 [3] was 4770 nM and the TGI [3] was greater than 100 µM. It also gave a GI50 [9] of 16.5 µM, a TGI [9] greater than 68 µM and a GI50 [5] of 16.9 µM. The TGI [5] was greater than 89.1 µM, the GI50 [10] was 7.87 µM and the TGI [10] was 70.4 µM. For the same molecule, the GI50 [6] was 71.9 nM, the TGI [6] was greater than 64.1 µM and the GI50 [7] was 4.61 µM. It also gave a TGI [7] of 24.4 µM.
For `CC1=C[C@H]2c3c(c(O)c(O)c4oc5cc(O)cc(O)c5c(=O)c34)[C@H](c3cc(O)c(O)c4oc5cc(O)cc(O)c5c(=O)c34)[C@H]2C(C)(C)C1`, the GI50 [1] was 2.65 µM, the TGI [1] was 7.33 µM and the GI50 [8] was 2.48 µM and 2.08 µM. For the same molecule, the TGI [8] was 11.4 µM and 12.8 µM, the GI50 [3] was 2750 nM and 1620 nM and the TGI [3] was 16.4 µM and 14 µM. For the same molecule, the GI50 [9] was 2.04 µM and 2.1 µM, the TGI [9] was 5.72 µM and 10.6 µM and the GI50 [5] was 1.73 µM and 1.98 µM. The TGI [5] was 4.1 µM and 5.31 µM, the GI50 [10] was 1.96 µM and 1.8 µM and the TGI [10] was 7.41 µM and 5.46 µM. For the same molecule, the GI50 [6] was 1980 nM and 1630 nM, the TGI [6] was 6.32 µM and 4.96 µM and the GI50 [7] was 2.12 µM and 3.06 µM. For the same molecule, the TGI [7] was 10.5 µM and 14.8 µM.
Work on `COc1ccc(CNc2nc3ccccc3nc2-c2cccs2)cc1OC` yielded a TGI [1] greater than 100 µM, a TGI [3] greater than 100 µM and a TGI [9] greater than 100 µM. For the same molecule, the TGI [4] was greater than 100 µM, the TGI [5] was greater than 100 µM and the TGI [6] was greater than 100 µM. The TGI [7] was greater than 100 µM.
`C#CCOCn1cnc2ncnc(Cl)c21` gave a TGI [1] greater than 100 µM, a TGI [2] greater than 100 µM and a TGI [4] greater than 100 µM. The TGI [5] was greater than 100 µM, the TGI [6] was greater than 100 µM and the TGI [7] was greater than 100 µM.
`O=C(Cc1ccccc1)Nc1nnc(CCSCCc2nnc(NC(=O)Cc3ccccc3)s2)s1` was tested, and the GI50 [1] was greater than 100 µM, the TGI [1] was greater than 100 µM and the GI50 [8] was 23.8 µM. It also gave a TGI [8] greater than 100 µM, a GI50 [3] greater than 100000 nM and a TGI [3] greater than 100 µM. For the same molecule, the GI50 [9] was 4.26 µM, the TGI [9] was 65.4 µM and the GI50 [5] was 13.5 µM. For the same molecule, the TGI [5] was 48.9 µM, the GI50 [10] was 4.55 µM and the TGI [10] was greater than 100 µM. The GI50 [6] was 4380 nM, the TGI [6] was 36.6 µM and the GI50 [7] was 35.6 µM. For the same molecule, the TGI [7] was greater than 100 µM.
In the case of `O=C1CC(c2ccccc2)Cc2nc3ccc(Cl)cc3cc21` (configuration not stated), the GI50 [1] is reported as 0.344 µM, the TGI [1] is reported as 3 µM and the GI50 [8] is reported as 0.217 µM. It also gave a TGI [8] greater than 100 µM, a GI50 [3] of 511 nM and a TGI [3] of 66.6 µM. The GI50 [9] was 0.143 µM, the TGI [9] was 0.566 µM and the GI50 [5] was 0.0453 µM. The TGI [5] was 52.9 µM, the GI50 [10] was 0.293 µM and the TGI [10] was greater than 100 µM. For the same molecule, the GI50 [6] was 339 nM, the TGI [6] was 17.3 µM and the GI50 [7] was 22.3 µM. The TGI [7] was greater than 100 µM.
Work on `O=C(CCCn1ccnc1[N+](=O)[O-])NCCn1cnc([N+](=O)[O-])c1` yielded a TGI [1] greater than 100 µM, a TGI [8] greater than 100 µM and a TGI [3] greater than 100 µM. For the same molecule, the TGI [9] was greater than 100 µM, the TGI [5] was greater than 100 µM and the TGI [10] was greater than 100 µM. The TGI [6] was greater than 100 µM and the TGI [7] was greater than 100 µM.
`C[C@@H]1CN(Cc2ccc(/C=C/c3n[nH]c4ccc5nc(-c6cn[nH]c6C(F)(F)F)c6c(c5c34)CCCC6)cc2)C[C@H](C)O1` gave a GI50 [1] of 3.21 µM, a TGI [1] of 12 µM and a GI50 [8] of 4.53 µM. For the same molecule, the TGI [8] was 16.9 µM, the GI50 [3] was 1760 nM and the TGI [3] was 11.3 µM. It also gave a GI50 [9] of 6.32 µM, a TGI [9] of 28.5 µM and a GI50 [5] of 4.96 µM. For the same molecule, the TGI [5] was 20.9 µM, the GI50 [10] was 3.93 µM and the TGI [10] was 18.8 µM. The GI50 [6] was 3350 nM, the TGI [6] was 18.1 µM and the GI50 [7] was 4.92 µM. The TGI [7] was 17.7 µM.
`Cc1sc2nc(-c3ccccn3)c(/C=N/N=C(N)N)n2c1C` showed a GI50 [1] of 4.97 µM, a TGI [1] of 11.4 µM and a GI50 [8] of 4.88 µM. For the same molecule, the TGI [8] was 12.6 µM, the GI50 [3] was 4980 nM and the TGI [3] was 13.5 µM. The GI50 [9] was 4.48 µM, the TGI [9] was greater than 100 µM and the GI50 [5] was 4.53 µM. It also gave a TGI [5] of 9.81 µM, a GI50 [10] of 10.2 µM and a TGI [10] of 28.6 µM. For the same molecule, the GI50 [6] was 8770 nM, the TGI [6] was 16.9 µM and the GI50 [7] was 5.89 µM. The TGI [7] was 11.2 µM.
In the case of `COC1=NN2C(OC)(c3ccccc3)c3c(-c4ccccc4)sc(-c4ccccc4)c3C2(c2ccccc2)S1` (configuration not stated), the TGI [1] is reported as greater than 100 µM, the TGI [2] is reported as greater than 100 µM and the TGI [3] is reported as greater than 100 µM. For the same molecule, the TGI [9] was greater than 100 µM, the TGI [5] was greater than 100 µM and the TGI [6] was greater than 100 µM. It also gave a TGI [7] greater than 100 µM.
